Measured values taken from patent US20240016924A1, “NEW ADJUVANT TO IMPROVE THE INNATE IMMUNITY” (INSTITUT NATIONAL DE LA SANTÉ ET DE LA RECHERCHE MÉDICALE, priority 2020, published 2024).

Tests used:
Assay type in all cases: cell-based, human
[1] = system: nasal RPMI cells; experiment: Cytokines and chemokines quantification (Luminex), nasal RPMI cells; conditions: 125 μM, 24 hrs
Procedure: TSLP, IL-25/IL-17E, IL-33, IFN-γ, IL-10, IL-12/23p40, IL-4, IL-5, IL-6, IL-13, TNF-α, MMP-9, IL-8/CXCL8, […], MDC/CCL22, TARC/CCL17, APRIL and BAFF were measured in culture supernatants from indicated experiments with custom multiplex Luminex assays (Bio-techne) according to the manufacturer's instructions. Additionally, when indicated TSLP was measured in culture supernatants by enzyme-linked immunosorbent assay (ELISA) with a limit of detection of 8 pg/ml (Thermo Fisher) according to the manufacturer's instructions.
We next investigated whether, in addition to TSLP, P1 could stimulate epithelial secretion of additional immune factors prone to attract antigen presenting cells (APCs). […] Together with TSLP (Zhou, Xu et al. 2018), this set of immune factors could facilitate recruitment of APCs to the mucosal surface for initiation of an immune response, since CCL20 and CCL2 chemo-attract macrophages and immature dendritic cells (DCs), and MMP-9 degrades the extracellular matrix and facilitates the migration of immune cells in or out the epithelium. Treg cells have IgA-inducing functions and require RA, TGF-b1, IL-10, and TSLP from intestinal epithelial cells and DCs. So, we assumed IL-10 released from either EC or DC may contribute to IgA class switching (Gutzeit, Magri, et al. 2014).

[2] = system: nasal RPMI cells; experiment: Quantitative RT-PCR for short and long form TSLP, nasal RPMI cells
Procedure: The expression of short and long form TSLP was quantified as described (Bjerkan, Schreurs et al. 2015, Dong, Hu et al. 2016). Briefly, total RNA was extracted using Trizol. Five hundred nanograms of RNA were treated with ezDNase Enzyme (Thermo Fisher) to remove genomic DNA, and reverse transcribed into cDNA using the kit SuperScript IV VILO Master Mix according to manufacturer instructions (Thermo Fisher). Quantitative PCR was performed using reported primers (Dong, Hu et al. 2016) and the PowerUp SYBR Green Master Mix according to manufacturer instructions (Thermo Fisher). Reactions were performed in triplicates, with glyceraldehyde-3-phosphate dehydrogenase (GAPDH) as the internal control. Amplification, data acquisition, and analysis were carried out using the LightCycler 480 Software (Roche, Mannheim, Germany). The levels of TSLP mRNA were normalized to the levels of GAPDH using the ΔCt method (Schmittgen and Livak 2008) and were presented as 2-ΔCt values.

[3] = system: CD8-depleted PBMCs cocultured with RPMI 2650 cells; experiment: In vitro immunization assay with ovalbumin
Procedure: In vitro immunization assay was performed as reported (Jung, Matsumoto et al. 2007) with modifications. Briefly, 1×10^6 CD8-depleted PBMCs (Human CD8 Depletion Cocktail, StemCell Technologies, France) were cocultured for 24 hrs with RPMI 2650 cells ([…]) pre-seeded in 48 well plates for 48 hrs. Then, ovalbumin (OVA, EndoFit Ovalbumin, 10 µg/mL, Invivogen) alone, OVA together with P1 (5 μM, 25 μM, 125 μM), OVA together with P1 mutant (P1mut, 125 μM), or medium were added to in RPMI 1640 medium supplemented with Non-Essential Amino Acids (NEAA solution, Thermo Fisher), IL-4 ([…]), IL-2 (10 UI/mL) and 2-mercaptoethanol (20 μM) for 7 days.
For the detection of OVA-specific B cells, at indicated time of culture, PMBCs were surface stained with ovalbumin conjugated to fluorescein (OVA-FITC, 20 ug/mL, Thermo), PE-conjugated mouse anti-human CD20 (BD Biosciences, CA, USA), APC-conjugated goat anti-human IgA or donkey anti-human IgG (Jackson ImmunoResearch, PA, USA) as indicated by the manufacturer. Specific labeling was quantified by flow cytometry with a Guava EasyCyte flow cytometer (Merck-Millipore), and analyzed with the dedicated InCyte software, using the following strategy: CD20+ B cells were first gated and cell double positive for OVA-FITC+ and APC-conjugated anti-IgA or anti-IgG were determined as OVA-IgA or IgG-specific B-cell s.
In vitro immunization assays have been used to produce specific monoclonal antibodies using a defined antigen complemented with an adjuvant (Borrebaeck, Danielsson et al. 1987). Here, we establish a mucosal immunization model adapted from (Jung, Matsumoto et al. 2007, Yeh, Yeh et al. 2013, Wijkhuisen, Savatier et al. 2016) and using mucosal DCs based on our results presented above. OVA was selected as the model antigen. Therefore, human CD8-depleted PBMCs (n=5 independent donors) were cocultured with RPMI 2650 cells for one day to educate DCs, and prior to addition of either medium, OVA, OVA plus P1 mutant (P1mut, 125 μM) or OVA plus P1 (5 μM, 25 μM, 125 μM) for seven more days. OVA-specific B cells were quantified by flow cytometry using FITC-conjugated OVA and anti-CD2O-PE to gate on OVA-specific B cells. The Ig isotype of surface B cell receptor (BCR) was next characterized by APC-conjugated anti-human-IgA or anti-human-IgG. […] Similar results were obtained when B cells were stained with anti-CD19-PE.

Sequence: SQNQQEKNEQELLELDKWASLWNWFNITNWLWYIK [P1]
- secretion of MMP-9, CCL20, CCL2 and IL-10 [1]: selectively induced the secretion of MMP-9, CCL20, CCL2 and IL-10
- increase of lfTSLP transcription compared to unstimulated cells ([2]; p=0.02, n=5): 1.9 fold
- level of the sfTSLP transcript ([2]; upon P1 stimulation): remains unchanged
- induction of OVA-specific B cells ([3]; OVA plus P1 at 5 μM and 25 μM, 7 days): very limited
- OVA-specific B cells (surface OVA-specific IgA and IgG) ([3]; OVA plus P1 at 125 μM, 7 days, n=5 donors): significantly enhances OVA recognition by B cells
- induction of OVA-specific B cells ([3]; absence of nasal epithelial cells during the in vitro immunization): not able to induce OVA-specific B cells
- OVA-specific antibody secretion in culture supernatants ([3]; day 7, ELISA): could not be detected by ELISA
